Assay results: patent US20230172204A1 (BASF SE, priority 2020, published 2023)

Key:
[1] = tested on: Phakopsora pachyrhizi (F129L); experiment: Protective control of soybean rust on soybeans (PHAKPA P2); format: in vivo; details: for % PHAKPA (F129L) Disease level P2 at 4 ppm: protective P2, 4 ppm; for % PHAKPA (F129L) Disease level P2 at 4 ppm / % PHAKPA (F129L) Disease level P2 at 16 ppm: soybean rust F129L; for % PHAKPA (F129L) Disease level P2 at 16 ppm: protective P2, 16 ppm
[2] = tested on: Phakopsora pachyrhizi (F129L); experiment: Protective control of soybean rust on soybeans (PHAKPA P6); format: in vivo; details: for % PHAKPA (F129L) Disease level P6 at 4 ppm: protective P6, 4 ppm; for % PHAKPA (F129L) Disease level P6 at 4 ppm / % PHAKPA (F129L) Disease level P6 at 16 ppm: soybean rust F129L; for % PHAKPA (F129L) Disease level P6 at 16 ppm: protective P6, 16 ppm; for PHAKPA (F129L) Disease level (%) P6 at 4 ppm / PHAKPA (F129L) Disease level (%) P6 at 16 ppm: P6 protective, % diseased leaf area
[3] = P2 protective, % diseased leaf area

| SMILES | % PHAKPA (F129L) Disease level P2 at 4 ppm [1] | % PHAKPA (F129L) Disease level P2 at 16 ppm [1] | % PHAKPA (F129L) Disease level P6 at 4 ppm [2] | % PHAKPA (F129L) Disease level P6 at 16 ppm [2] | PHAKPA (F129L) Disease level (%) P2 at 4 ppm [1, 3] | PHAKPA (F129L) Disease level (%) P6 at 4 ppm [2] | PHAKPA (F129L) Disease level (%) P2 at 16 ppm ([1]; P2 protective, 16 ppm, % diseased leaf area) | PHAKPA (F129L) Disease level (%) P6 at 16 ppm [2] |
| --- | --- | --- | --- | --- | --- | --- | --- | --- |
| CNC(=O)/C(=N/OC)c1cccc(C)c1CO/N=C(\C)c1cc(F)cc(C(F)(F)F)c1 [compound 50] | 2% | 1% | 6% | 0% |  |  |  |  |
| CNC(=O)/C(=N/OC)c1cccc(C)c1CO/N=C(\C)c1cc(Br)cc(Br)c1 [compound 142] | 19% | 5% | 26% | 5% |  |  |  |  |
| C=Cc1cccc(/C(=N\OC)C(=O)OC)c1CO/N=C(\C)c1cccc(C(F)(F)F)c1 [Ex. 13] | 28% | 0% | 25% | 0% |  |  |  |  |
| CC/C(=N\OCc1ccccc1/C(=N\OC)C(=O)NC)c1cccc(C(F)(F)F)c1 [reference compound] |  |  |  |  | 60% | 70% |  |  |
| CO/C=C(/C(=O)OC)c1cccc(C)c1CO/N=C(\C)c1c(Cl)ccc(F)c1OC(F)(F)F [compound 442] | 100% | 93% | 80% | 77% |  |  |  |  |
| CO/N=C(/C(=O)OC)c1cccc(C)c1CO/N=C(\C)c1ccc(Cc2ccccc2)cc1C(F)(F)F [compound 408] | 30% | 12% | 33% | 13% |  |  |  |  |
| CNC(=O)/C(=N/OC)c1cccc(C)c1CO/N=C(\C)c1ccc(OC(F)(F)F)cc1 [compound 136] | 1% | 0% | 3% | 2% |  |  |  |  |
| CNC(=O)/C(=N/OC)c1cccc(C)c1CO/N=C(\C)c1ccc(OC)cc1C(F)(F)F [compound 324] | 2% | 1% | 12% | 0% |  |  |  |  |
| COC=C(C(=O)OC)c1cccc(C)c1CON=C(C)c1ccc(OC)cc1C(F)(F)F [compound 464] | 1% | 0% | 8% | 0% |  |  |  |  |
| CNC(=O)/C(=N/OC)c1cccc(C)c1CO/N=C(\C)c1ccccc1C(C)(F)F [compound 372] | 85% | 26% | 85% | 16% |  |  |  |  |
| CNC(=O)/C(=N/OC)c1cccc(C)c1CO/N=C(\C)c1cc(-c2ccccc2)cc(C(F)(F)F)c1 [compound 149] | 83% | 45% | 87% | 31% |  |  |  |  |
| CO/N=C(/C(=O)OC)c1cccc(C)c1CO/N=C(\C)c1c(Cl)cc(Cl)cc1OC(F)(F)F [compound 427] | 100% | 90% | 60% | 47% |  |  |  |  |
| CNC(=O)/C(=N/OC)c1ccccc1CO/N=C(\C)c1ccc(C)cc1 [reference compound] |  |  |  |  | 100% | 100% |  |  |
| CO/N=C(/C(=O)OC)c1cccc(C)c1CO/N=C(\C)c1c(F)cc(F)cc1C(F)(F)F [compound 360] | 53% | 9% | 80% | 5% |  |  |  |  |
| CO/N=C(/C(=O)OC)c1cccc(C)c1CO/N=C(\C)c1cc(Cl)cc(Cl)c1 [Ex. 3, Methyl (2E)-2-[2-[[(E)-1-(3,5-dichlorophenyl)ethylideneamino]oxymethyl]-3-methyl-phenyl]-2-methoxyimino-acetate] | 30% | 3% | 40% | 6% |  |  | 2% | 1% |
| CO/N=C(/C(=O)OC)c1cccc(C)c1CO/N=C(\C)c1ccc(-c2ccc(F)cc2)cc1C(F)(F)F [compound 425] | 27% | 28% | 53% | 40% |  |  |  |  |
| CO/N=C(/C(=O)OC)c1cccc(C)c1CO/N=C(\C)c1ccc(C)c(C(F)(F)F)c1 [compound 229] | 27% | 2% | 77% | 6% |  |  |  |  |
| CO/N=C(/C(=O)OC)c1cccc(C)c1CO/N=C(/c1cccc(Cl)c1)C1CC1 [drawing 981, reference compound] |  |  |  |  | 83% |  |  | 87% |
| CNC(=O)/C(=N/OC)c1cccc(C)c1CO/N=C(\C)c1cc(F)ccc1Br [compound 248] | 33% | 2% | 30% | 2% |  |  |  |  |
| CNC(=O)/C(=N/OC)c1cccc(C)c1CO/N=C(\C)c1c(F)ccc(F)c1OC(F)(F)F [compound 346] | 4% | 0% | 5% | 0% |  |  |  |  |
| COC=C(C(=O)OC)c1cccc(C)c1CON=C(C)c1ccccc1OC(F)(F)F [compound 462] | 37% | 6% | 55% | 10% |  |  |  |  |
| CNC(=O)/C(=N/OC)c1cccc(C)c1CO/N=C(\C)c1cc(Cl)c(F)c(Cl)c1 [compound 247] | 16% | 2% | 33% | 8% |  |  |  |  |
